Assay results as given in PubChem BioAssay AID330 (DTP/NCI, 2004).
Values joined by “and” are separate entries in the source; they are usually repeats but may differ in a detail not shown here. Equal values may be shown once. Inconclusive results and toxic doses are left out.

Tested on: P388 leukemia ip, CD2F1 mice, survival T/C
Test: NCI In Vivo Anticancer Drug Screen. Data for tumor model P388 Leukemia (intraperitoneal) in CD2F1 (CDF1) mice
Details: endpoint: median survival time, higher = longer survival
Outline: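 Mice carrying the transplanted tumor received test compound or vehicle. Survival was recorded in each group, and the value is the treated-group measurement divided by that of the vehicle-treated control group.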

Cc1[nH]c(=O)[nH]c(=O)c1N(CCF)CCCl
T/C (dose: 0.5 mg/kg/injection, schedule: Q03HX024 (ip), vehicle: acid diluted with saline): 101 % of control
T/C (dose: 1.0 mg/kg/injection, schedule: Q03HX016 (ip), vehicle: acid diluted with saline): 100 % of control
T/C (dose: 1.0 mg/kg/injection, schedule: Q03HX024 (ip), vehicle: acid diluted with saline): 105 % of control
T/C (dose: 1.8 mg/kg/injection, schedule: Q01DX009 (ip), vehicle: saline with Tween-80): 109 % of control
T/C (dose: 2.0 mg/kg/injection, schedule: Q01DX009 (ip), vehicle: acid diluted with saline): 110 % of control
T/C (dose: 2.0 mg/kg/injection, schedule: Q01DX009 (sc), vehicle: acid diluted with saline): 101 % of control
T/C (dose: 2.0 mg/kg/injection, schedule: Q03HX008 (ip), vehicle: acid diluted with saline): 105 % of control
T/C (dose: 2.0 mg/kg/injection, schedule: Q03HX016 (ip), vehicle: acid diluted with saline): 105 % of control
T/C (dose: 2.0 mg/kg/injection, schedule: Q03HX024 (ip), vehicle: acid diluted with saline): 108 % of control
T/C (dose: 2.0 mg/kg/injection, schedule: Q03HX024 (oral), vehicle: acid diluted with saline): 109 % of control
T/C (dose: 2.0 mg/kg/injection, schedule: Q03HX024 (oral), vehicle: other): 107 % of control
T/C (dose: 3.0 mg/kg/injection, schedule: Q01DX009 (ip), vehicle: saline with Tween-80): 109 % of control
T/C (dose: 4.0 mg/kg/injection, schedule: Q01DX005 (ip), vehicle: Klucel (hydroxypropylcellulose) (HPC)): 121 % of control
T/C (dose: 4.0 mg/kg/injection, schedule: Q01DX005 (iv), vehicle: Klucel (hydroxypropylcellulose) (HPC)): 102 % of control
T/C (dose: 4.0 mg/kg/injection, schedule: Q01DX009 (ip), vehicle: acid diluted with saline): 101 % of control
T/C (dose: 4.0 mg/kg/injection, schedule: Q01DX009 (sc), vehicle: acid diluted with saline): 103 % of control
T/C (dose: 4.0 mg/kg/injection, schedule: Q03HX008 (ip), vehicle: acid diluted with saline): 105 % of control
T/C (dose: 4.0 mg/kg/injection, schedule: Q03HX008 (oral), vehicle: other): 105 % of control
T/C (dose: 4.0 mg/kg/injection, schedule: Q03HX016 (oral), vehicle: other): 100 % of control
T/C (dose: 4.0 mg/kg/injection, schedule: Q03HX024 (ip), vehicle: acid diluted with saline): 112 % of control
T/C (dose: 4.0 mg/kg/injection, schedule: Q03HX024 (oral), vehicle: acid diluted with saline): 100 % of control
T/C (dose: 4.0 mg/kg/injection, schedule: Q03HX024 (oral), vehicle: other): 108 % of control
T/C (dose: 4.0 mg/kg/injection, schedule: Q04DX003 (ip), vehicle: acid diluted with saline): 106 % of control
T/C (dose: 5.0 mg/kg/injection, schedule: Q01DX009 (ip), vehicle: saline with Tween-80): 109 % of control
T/C (dose: 6.25 mg/kg/injection, schedule: Q04DX003 (ip), vehicle: saline): 104 % of control
T/C (dose: 8.0 mg/kg/injection, schedule: Q01DX001 (ip), vehicle: acid diluted with saline): 109 % of control
T/C (dose: 8.0 mg/kg/injection, schedule: Q01DX001 (ip), vehicle: saline): 118 % of control
T/C (dose: 8.0 mg/kg/injection, schedule: Q01DX005 (iv), vehicle: Klucel (hydroxypropylcellulose) (HPC)): 119 % of control
T/C (dose: 8.0 mg/kg/injection, schedule: Q01DX009 (ip), vehicle: acid diluted with saline): 116 % of control
T/C (dose: 8.0 mg/kg/injection, schedule: Q01DX009 (oral), vehicle: acid diluted with saline): 109 % of control
T/C (dose: 8.0 mg/kg/injection, schedule: Q01DX009 (oral), vehicle: other): 115 % of control
T/C (dose: 8.0 mg/kg/injection, schedule: Q01DX009 (sc), vehicle: acid diluted with saline): 108 % of control
T/C (dose: 8.0 mg/kg/injection, schedule: Q03HX008 (ip), vehicle: acid diluted with saline): 103 % of control
T/C (dose: 8.0 mg/kg/injection, schedule: Q03HX008 (oral), vehicle: acid diluted with saline): 109 % of control
T/C (dose: 8.0 mg/kg/injection, schedule: Q03HX008 (oral), vehicle: other): 106 % of control
T/C (dose: 8.0 mg/kg/injection, schedule: Q03HX016 (ip), vehicle: acid diluted with saline): 105 % of control
T/C (dose: 8.0 mg/kg/injection, schedule: Q03HX016 (oral), vehicle: acid diluted with saline): 100 % of control
T/C (dose: 8.0 mg/kg/injection, schedule: Q03HX016 (oral), vehicle: other): 106 % of control
T/C (dose: 8.0 mg/kg/injection, schedule: Q03HX024 (oral), vehicle: acid diluted with saline): 104 % of control
T/C (dose: 8.0 mg/kg/injection, schedule: Q03HX024 (oral), vehicle: other): 115 % of control
T/C (dose: 8.0 mg/kg/injection, schedule: Q04DX003 (ip), vehicle: acid diluted with saline): 112 % of control
T/C (dose: 8.0 mg/kg/injection, schedule: Q08DX002 (ip), vehicle: acid diluted with saline): 100 % of control
T/C (dose: 12.5 mg/kg/injection, schedule: Q04DX003 (ip), vehicle: saline): 122 % of control
T/C (dose: 16.0 mg/kg/injection, schedule: Q01DX001 (ip), vehicle: acid diluted with saline): 103 % of control and 118 % of control and 122 % of control
T/C (dose: 16.0 mg/kg/injection, schedule: Q01DX001 (ip), vehicle: saline): 122 % of control
T/C (dose: 16.0 mg/kg/injection, schedule: Q01DX001 (sc), vehicle: acid diluted with saline): 100 % of control
T/C (dose: 16.0 mg/kg/injection, schedule: Q01DX005 (iv), vehicle: Klucel (hydroxypropylcellulose) (HPC)): 121 % of control
T/C (dose: 16.0 mg/kg/injection, schedule: Q01DX009 (ip), vehicle: acid diluted with saline): 150 % of control
T/C (dose: 16.0 mg/kg/injection, schedule: Q01DX009 (oral), vehicle: acid diluted with saline): 113 % of control
T/C (dose: 16.0 mg/kg/injection, schedule: Q01DX009 (oral), vehicle: other): 115 % of control
T/C (dose: 16.0 mg/kg/injection, schedule: Q01DX009 (sc), vehicle: acid diluted with saline): 123 % of control
T/C (dose: 16.0 mg/kg/injection, schedule: Q03HX008 (ip), vehicle: acid diluted with saline): 106 % of control
T/C (dose: 16.0 mg/kg/injection, schedule: Q03HX008 (oral), vehicle: acid diluted with saline): 109 % of control
T/C (dose: 16.0 mg/kg/injection, schedule: Q03HX008 (oral), vehicle: other): 106 % of control
T/C (dose: 16.0 mg/kg/injection, schedule: Q03HX016 (ip), vehicle: acid diluted with saline): 105 % of control
T/C (dose: 16.0 mg/kg/injection, schedule: Q03HX016 (oral), vehicle: acid diluted with saline): 109 % of control
T/C (dose: 16.0 mg/kg/injection, schedule: Q03HX024 (oral), vehicle: acid diluted with saline): 109 % of control
T/C (dose: 16.0 mg/kg/injection, schedule: Q03HX024 (oral), vehicle: other): 100 % of control
T/C (dose: 16.0 mg/kg/injection, schedule: Q04DX003 (ip), vehicle: acid diluted with saline): 108 % of control
T/C (dose: 16.0 mg/kg/injection, schedule: Q04DX003 (oral), vehicle: acid diluted with saline): 113 % of control
T/C (dose: 16.0 mg/kg/injection, schedule: Q04DX003 (oral), vehicle: other): 111 % of control
T/C (dose: 16.0 mg/kg/injection, schedule: Q08DX002 (ip), vehicle: acid diluted with saline): 101 % of control
T/C (dose: 23.0 mg/kg/injection, schedule: Q01DX009 (ip), vehicle: saline with Tween-80): 150 % of control
T/C (dose: 25.0 mg/kg/injection, schedule: Q04DX003 (ip), vehicle: saline): 163 % of control
T/C (dose: 32.0 mg/kg/injection, schedule: Q01DX001 (ip), vehicle: acid diluted with saline): 103 % of control
T/C (dose: 32.0 mg/kg/injection, schedule: Q01DX001 (ip), vehicle: saline): 154 % of control
T/C (dose: 32.0 mg/kg/injection, schedule: Q01DX001 (oral), vehicle: other): 106 % of control
T/C (dose: 32.0 mg/kg/injection, schedule: Q01DX001 (sc), vehicle: acid diluted with saline): 99 % of control
T/C (dose: 32.0 mg/kg/injection, schedule: Q01DX009 (ip), vehicle: acid diluted with saline): 158 % of control
T/C (dose: 32.0 mg/kg/injection, schedule: Q01DX009 (oral), vehicle: acid diluted with saline): 118 % of control
T/C (dose: 32.0 mg/kg/injection, schedule: Q03HX008 (ip), vehicle: acid diluted with saline): 107 % of control
T/C (dose: 32.0 mg/kg/injection, schedule: Q03HX016 (oral), vehicle: acid diluted with saline): 109 % of control
T/C (dose: 32.0 mg/kg/injection, schedule: Q04DX003 (ip), vehicle: acid diluted with saline): 123 % of control
T/C (dose: 32.0 mg/kg/injection, schedule: Q04DX003 (oral), vehicle: acid diluted with saline): 109 % of control
T/C (dose: 32.0 mg/kg/injection, schedule: Q04DX003 (oral), vehicle: other): 108 % of control
T/C (dose: 32.0 mg/kg/injection, schedule: Q08DX002 (ip), vehicle: acid diluted with saline): 101 % of control
T/C (dose: 32.0 mg/kg/injection, schedule: Q08DX002 (oral), vehicle: other): 114 % of control
T/C (dose: 64.0 mg/kg/injection, schedule: Q01DX001 (ip), vehicle: saline): 159 % of control
T/C (dose: 64.0 mg/kg/injection, schedule: Q01DX001 (oral), vehicle: acid diluted with saline): 109 % of control
T/C (dose: 64.0 mg/kg/injection, schedule: Q01DX001 (oral), vehicle: other): 108 % of control
T/C (dose: 64.0 mg/kg/injection, schedule: Q01DX001 (sc), vehicle: acid diluted with saline): 100 % of control
T/C (dose: 64.0 mg/kg/injection, schedule: Q04DX003 (oral), vehicle: acid diluted with saline): 109 % of control
T/C (dose: 64.0 mg/kg/injection, schedule: Q04DX003 (oral), vehicle: other): 124 % of control
T/C (dose: 64.0 mg/kg/injection, schedule: Q08DX002 (oral), vehicle: acid diluted with saline): 109 % of control
T/C (dose: 64.0 mg/kg/injection, schedule: Q08DX002 (oral), vehicle: other): 115 % of control
T/C (dose: 128.0 mg/kg/injection, schedule: Q01DX001 (oral), vehicle: acid diluted with saline): 109 % of control
T/C (dose: 128.0 mg/kg/injection, schedule: Q01DX001 (sc), vehicle: acid diluted with saline): 99 % of control
T/C (dose: 128.0 mg/kg/injection, schedule: Q01DX009 (oral), vehicle: acid diluted with saline): 118 % of control
T/C (dose: 128.0 mg/kg/injection, schedule: Q08DX002 (oral), vehicle: acid diluted with saline): 100 % of control
T/C (dose: 256.0 mg/kg/injection, schedule: Q01DX001 (oral), vehicle: acid diluted with saline): 109 % of control
T/C (dose: 256.0 mg/kg/injection, schedule: Q01DX001 (sc), vehicle: acid diluted with saline): 100 % of control
T/C (dose: 256.0 mg/kg/injection, schedule: Q04DX003 (oral), vehicle: acid diluted with saline): 118 % of control
T/C (dose: 256.0 mg/kg/injection, schedule: Q08DX002 (oral), vehicle: acid diluted with saline): 104 % of control
T/C (dose: 512.0 mg/kg/injection, schedule: Q01DX001 (oral), vehicle: acid diluted with saline): 113 % of control
T/C (dose: 512.0 mg/kg/injection, schedule: Q08DX002 (oral), vehicle: acid diluted with saline): 109 % of control
